Assay results taken from ChEMBL document CHEMBL2062415, “Steroids from Commiphora mukul display antiproliferative effect against human prostate cancer PC3 cells via induction of apoptosis” (Bioorg Med Chem Lett, 2012).

What was measured:
PC-3 [1] = assay: Cytotoxicity against human PC3 cells after 24 hrs by MTT assay; type: functional, cell-based; settings: PC-3, 24 h
DU-145 = assay: Cytotoxicity against human DU145 cells after 24 hrs by MTT assay; type: functional, cell-based; settings: DU-145, 24 h
K562 [2] = assay: Cytotoxicity against human K562 cells after 24 hrs by MTT assay; type: functional, cell-based; settings: K562, 24 h
MCF7 [3] = assay: Cytotoxicity against human MCF7 cells after 24 hrs by MTT assay; type: functional, cell-based; settings: MCF7, 24 h
PC-3 [4] = assay: Cytotoxicity against human PC3 cells assessed as cell viability at 10 uM after 24 hrs by MTT assay; type: functional; settings: PC-3, 24 h, read-out: Activity
K562 [5] = assay: Cytotoxicity against human K562 cells assessed as cell viability at 10 uM after 24 hrs by MTT assay; type: functional; settings: K562, 24 h, read-out: Activity
MCF7 [6] = assay: Cytotoxicity against human MCF7 cells assessed as cell viability at 10 uM after 24 hrs by MTT assay; type: functional; settings: MCF7, 24 h, read-out: Activity
PC-3 [7] = assay: Induction of apoptosis in human PC3 cells assessed as early apoptotic cells at 10 uM after 48 hrs by annexinV/propidium iodide staining-based FITC analysis relative to control; type: functional
PC-3 [8] = assay: Induction of apoptosis in human PC3 cells assessed as late apoptotic cells at 10 uM after 48 hrs by annexinV/propidium iodide staining-based FITC analysis relative to control; type: functional
PC-3 [9] = assay: Induction of apoptosis in human PC3 cells assessed as necrotic cells at 10 uM after 48 hrs by annexinV/propidium iodide staining-based FITC analysis relative to control; type: functional
PC-3 [10] = assay: Induction of apoptosis in human PC3 cells assessed as early apoptotic cells at 20 uM after 48 hrs by annexinV/propidium iodide staining-based FITC analysis relative to control; type: functional
PC-3 [11] = assay: Induction of apoptosis in human PC3 cells assessed as late apoptotic cells at 20 uM after 48 hrs by annexinV/propidium iodide staining-based FITC analysis relative to control; type: functional
PC-3 [12] = assay: Induction of apoptosis in human PC3 cells assessed as necrotic cells at 20 uM after 48 hrs by annexinV/propidium iodide staining-based FITC analysis relative to control; type: functional
PC-3 [13] = assay: Induction of apoptosis in human PC3 cells assessed as early apoptotic cells at 40 uM after 48 hrs by annexinV/propidium iodide staining-based FITC analysis relative to control; type: functional
PC-3 [14] = assay: Induction of apoptosis in human PC3 cells assessed as late apoptotic cells at 40 uM after 48 hrs by annexinV/propidium iodide staining-based FITC analysis relative to control; type: functional
PC-3 [15] = assay: Induction of apoptosis in human PC3 cells assessed as necrotic cells at 40 uM after 48 hrs by annexinV/propidium iodide staining-based FITC analysis relative to control; type: functional
PC-3 [16] = assay: Cell cycle arrest in human PC3 cells assessed as accumulation at G0/G1 phase at 10 uM after 48 hrs by propidium iodide staining-based flow cytometric analysis relative to control; type: functional
PC-3 [17] = assay: Cell cycle arrest in human PC3 cells assessed as accumulation at S phase at 10 uM after 48 hrs by propidium iodide staining-based flow cytometric analysis relative to control; type: functional
PC-3 [18] = assay: Cell cycle arrest in human PC3 cells assessed as accumulation at G2/M phase at 10 uM after 48 hrs by propidium iodide staining-based flow cytometric analysis relative to control; type: functional
PC-3 [19] = assay: Cell cycle arrest in human PC3 cells assessed as accumulation at G0/G1 phase at 20 uM after 48 hrs by propidium iodide staining-based flow cytometric analysis relative to control; type: functional
PC-3 [20] = assay: Cell cycle arrest in human PC3 cells assessed as accumulation at S phase at 20 uM after 48 hrs by propidium iodide staining-based flow cytometric analysis relative to control; type: functional
PC-3 [21] = assay: Cell cycle arrest in human PC3 cells assessed as accumulation at G2/M phase at 20 uM after 48 hrs by propidium iodide staining-based flow cytometric analysis relative to control; type: functional
PC-3 [22] = assay: Cell cycle arrest in human PC3 cells assessed as accumulation at G0/G1 phase at 40 uM after 48 hrs by propidium iodide staining-based flow cytometric analysis relative to control; type: functional
PC-3 [23] = assay: Cell cycle arrest in human PC3 cells assessed as accumulation at S phase at 40 uM after 48 hrs by propidium iodide staining-based flow cytometric analysis relative to control; type: functional
PC-3 [24] = assay: Cell cycle arrest in human PC3 cells assessed as accumulation at G2/M phase at 40 uM after 48 hrs by propidium iodide staining-based flow cytometric analysis relative to control; type: functional
PC-3 [25] = assay: Induction of apoptosis in human PC3 cells assessed as early apoptotic cells at 30 uM after 48 hrs by annexinV/propidium iodide staining-based FITC analysis relative to control; type: functional
PC-3 [26] = assay: Induction of apoptosis in human PC3 cells assessed as late apoptotic cells at 30 uM after 48 hrs by annexinV/propidium iodide staining-based FITC analysis relative to control; type: functional
PC-3 [27] = assay: Induction of apoptosis in human PC3 cells assessed as necrotic cells at 30 uM after 48 hrs by annexinV/propidium iodide staining-based FITC analysis relative to control; type: functional
PC-3 [28] = assay: Cell cycle arrest in human PC3 cells assessed as accumulation at G0/G1 phase after 48 hrs by propidium iodide staining-based flow cytometric analysis; type: functional
PC-3 [29] = assay: Cell cycle arrest in human PC3 cells assessed as accumulation at G0/G1 phase at 30 uM after 48 hrs by propidium iodide staining-based flow cytometric analysis relative to control; type: functional
PC-3 [30] = assay: Cell cycle arrest in human PC3 cells assessed as accumulation at S phase at 30 uM after 48 hrs by propidium iodide staining-based flow cytometric analysis relative to control; type: functional
PC-3 [31] = assay: Cell cycle arrest in human PC3 cells assessed as accumulation at G2/M phase at 30 uM after 48 hrs by propidium iodide staining-based flow cytometric analysis relative to control; type: functional

`CC[C@H](/C=C/[C@@H](C)[C@H]1CC[C@H]2[C@@H]3CC=C4C[C@@H](O)CC[C@]4(C)[C@H]3CC[C@]12C)C(C)C` [STIGMASTEROL] showed an IC50 (PC-3 [1]) of 18.3 µM, an IC50 (DU-145) of 22.7 µM and an IC50 (K562 [2]) of 11.1 µM. The IC50 (MCF7 [3]) was 21.4 µM, the viability at 10 µM (PC-3 [4]) was 60% and the viability at 10 µM (K562 [5]) was 43%. It also gave a viability at 10 µM (MCF7 [6]) of 68%, an Activity (PC-3 [7]) of 2.78% and an Activity (PC-3 [8]) of 3.18%. It also gave an Activity (PC-3 [9]) of 1.05%, an Activity (PC-3 [10]) of 2.3% and an Activity (PC-3 [11]) of 3.77%. It also gave an Activity (PC-3 [12]) of 1.51%, an Activity (PC-3 [13]) of 2.73% and an Activity (PC-3 [14]) of 5.42%. For the same compound, the Activity (PC-3 [15]) was 2.07%, the Activity (PC-3 [16]) was 52.07% and the Activity (PC-3 [17]) was 26.9%. It also gave an Activity (PC-3 [18]) of 21.03%, an Activity (PC-3 [19]) of 51.41% and an Activity (PC-3 [20]) of 30.4%. It also gave an Activity (PC-3 [21]) of 18.19%, an Activity (PC-3 [22]) of 50.58% and an Activity (PC-3 [23]) of 36.4%. The Activity (PC-3 [24]) was 21.03%.
In the case of `C/C=C1\C(=O)C[C@H]2[C@@H]3CCC4=CC(=O)CC[C@]4(C)[C@H]3CC[C@]12C` [GUGGULSTERONE], the viability at 10 µM (PC-3 [4]) is reported as 80%, the viability at 10 µM (K562 [5]) is reported as 84% and the viability at 10 µM (MCF7 [6]) is reported as 65%.
With `COc1cccc2c1C(=O)c1c(O)c3c(c(O)c1C2=O)C[C@@](O)(C(=O)CO)C[C@@H]3O[C@H]1C[C@H](N)[C@H](O)[C@H](C)O1` [DOXORUBICIN] the IC50 (PC-3 [1]) was 8.46 µM, the IC50 (DU-145) was 13.2 µM and the IC50 (K562 [2]) was 3.79 µM. For the same compound, the IC50 (MCF7 [3]) was 1.37 µM.
Compound `CC[C@H](/C=C/[C@@H](C)[C@H]1CC[C@H]2[C@@H]3CC=C4C[C@@H](O)CC[C@]4(C)[C@H]3[C@H](O)C[C@]12C)C(C)C` has an IC50 (PC-3 [1]) of 32.4 µM, an IC50 (DU-145) of 46.8 µM and an IC50 (K562 [2]) of 7.18 µM. For the same compound, the IC50 (MCF7 [3]) was 13.5 µM, the viability at 10 µM (PC-3 [4]) was 94.5% and the viability at 10 µM (K562 [5]) was 43%. It also gave a viability at 10 µM (MCF7 [6]) of 68%, an Activity (PC-3 [10]) of 1.77% and an Activity (PC-3 [11]) of 1.91%. The Activity (PC-3 [12]) was 0.96%, the Activity (PC-3 [25]) was 1.14% and the Activity (PC-3 [26]) was 2.95%. It also gave an Activity (PC-3 [27]) of 1.41%, an Activity (PC-3 [13]) of 1.32% and an Activity (PC-3 [14]) of 2.49%. For the same compound, the Activity (PC-3 [15]) was 1.52%, the Activity (PC-3 [28]) was “Dose-dependent effect” and the Activity (PC-3 [19]) was 59.89%. It also gave an Activity (PC-3 [20]) of 21.63%, an Activity (PC-3 [21]) of 18.47% and an Activity (PC-3 [29]) of 70.27%. The Activity (PC-3 [30]) was 16.4%, the Activity (PC-3 [31]) was 13.33% and the Activity (PC-3 [22]) was 76.37%. It also gave an Activity (PC-3 [23]) of 11.24% and an Activity (PC-3 [24]) of 12.39%.
